Results on two molecules are retold here after patent US20200230247A1, “COMBINATION THERAPIES COMPRISING TARGETED THERAPEUTICS” (TARVEDA THERAPEUTICS, INC., priority 2017, published 2020).

The assay deals with NCI-H69 (small cell lung cancer) tumors. Description: Antitumor efficacy in mice bearing NCI-H69 tumors. The class given is in vivo. Conditions: Conjugate 1 12.5 mpk once per week IV, Talazoparib 0.33 mpk PO daily 4 days on/three days off, combo: Talazoparib starting 24 hrs post Conjugate 1 dose, tumor volumes measured up to 16 days after treatment. How it is done:
Mice bearing NCI-H69 (small cell lung cancer) tumors were treated with the following.
1). Vehicle controls; 2). 12.5 mpk (mg per kilogram) of Conjugate 1 once per week via intravenous administration (IV); 3). 0.33 mpk Talazoparib daily for 4 days on/three days off via oral administration (PO); 4). 12.5 mpk Conjugate 1 once per week via IV, and 0.33 mpk Talazoparib daily for 4 days on/three days off starting 24 hrs post Conjugate 1 dose.
Tumor volumes were measured 3 days, 8 days, 10 days, 13 days and 16 days after treatment.

Regarding `CCc1c2c(nc3ccc(OC(=O)N4CCC(CCn5ccc6cc(-n7c(O)nnc7-c7cc(C(C)C)c(O)cc7O)ccc65)CC4)cc13)-c1cc3c(c(=O)n1C2)COC(=O)[C@]3(O)CC` [Conjugate 1, (S)-4,11-diethyl-4-hydroxy-3,14-dioxo-3,4,12,14-tetrahydro-1H-pyrano[3′,4′:6,7]indolizino[1,2-b]quinolin-9-yl 4-(2-(5-(3-(2,4-dihydroxy-5-isopropylphenyl)-5-hydroxy-4H-1,2,4-triazol-4-yl)-1H-indol-1-yl)ethyl)piperidine-1-carboxylate], the “Tumor Growth Inhibition (TGI %)” value is on record as 50.67%.
For `Cn1ncnc1[C@H]1c2n[nH]c(=O)c3cc(F)cc(c23)N[C@@H]1c1ccc(F)cc1` [Talazoparib, talazoparib] the value was 15.66%.
